# Data: US10519115B2, “Antidiabetic tricyclic compounds” (Merck Sharp & Dohme Corp., priority 2013, dated 2019)
# Assays:
# Assay type in all cases: cell-based
# Human GPR40 [1] = target: T1, Human GPR40 (Homo sapiens, UniProt O14842); experiment: Inositol Phosphate Turnover (IP1) Assay 2 (HEK cells stably expressing human GPR40, CisBio IP-One kit); parameters: expressed in transfected cells; host or cells: HEK cells stably expressing the aequorin reporter; conditions: HEK cells stably expressing human GPR40, 384-well
# Description: (§1) Human and mouse GPR40 stable cell-lines were generated in CHO cells stably expressing NFAT BLA (Beta-lactamase). A human GPR40 stable cell-line was generated in HEK cells stably expressing the aequorin expressing reporter. The expression plasmids were transfected using lipofectamine (Life Technologies) following manufacturer's instructions. Stable cell-lines were generated following drug selection.
# The assay was performed in 384-well format. HEK cells stably expressing human GPR40 were plated at 15,000 cells per well in growth medium (DMEM/10% fetal calf serum). Cell plates were then incubated 16 hours at 37 degrees in a 5% CO2 incubator.
# Measurement of Inositol Phosphate Turnover (IP1) was performed using the CisBio IP-One kit (Part number 62IPAPEB). After the 16 hour incubation, the cells were washed with HEPES buffer and 10 ul of stimulation buffer (prepared as described in the kit) was added to each well. In a separate plate, compounds were diluted in DMSO (400-fold over the final concentration in the assay well) and 25 nl was acoustically transferred to the appropriate well in the assay cell plate. The plates were then incubated for 60 minutes at 37 degrees. 10 ul of detection buffer (also prepared as described in the IP-One kit) was added to each well and the plates were incubated for 60 minutes in the dark. The plates were then read in a Perkin Elmer EnVision or equivalent reader able to measure FRET. Fluorescent ratio of emission at 665 and 620 nm was then converted to IP1 concentration by back calculating from an IP1 standard curve prepared at the time of the assay.
# Human GPR40 [2] = target: T1, Human GPR40; experiment: Inositol Phosphate Turnover Assay 1 (HEK cells stably expressing human GPR40); parameters: expressed in transfected cells; host or cells: HEK cells stably expressing the aequorin reporter; conditions: HEK cells stably expressing human GPR40, 96-well, 3H-inositol; read-out: Human GPR40 IP1 Assay 1, EC50
# Description: as §1
# The assay was performed in 96-well format. HEK cells stably expressing human GPR40 were plated to be 60-80% confluent within 72 h. After 72 h, the plates were aspirated and the cells washed with inositol-free DMEM (ICN). The wash media was replaced with 150 μL of 3H-inositol labeling media (inositol-free media containing 0.4% human albumin or 0.4% mouse albumin, 1× pen/strep antibiotics, glutamine, 25 mM HEPES to which was added 3H-myo-inositol NEN #NET114A 1 mCi/mL, 25 Ci/mmol diluted 1:150 in loading media with a final specific radioactivity of 1 μCi/150 μL). Alternatively, the human and mouse albumin can be added after the overnight labeling step before the addition of LiCl.
# The assay was typically run the next day after 18 h labeling. On the day of the assay, 5 μL of 300 mM LiCl was added to all wells and incubated at 37 degrees for 20 min. 0.75 μL of 200× compounds were added and incubated with the cells for 60 min at 37 degrees. The media was then aspirated off and the assay terminated with the addition of 60 μL 10 mM formic acid. The cells were lysed for 60 min at room temperature. 15-30 μL of lysate was mixed with 70 μL/1 mg YSi SPA beads (Amersham) in clear bottom Isoplates. The plates were shaken for 2 h at room temperature. Beads were allowed to settle and the plates were counted in the Wallac Microbeta.
# Human GPR40 [3] = target: T1, Human GPR40; experiment: FLIPR assay (agonist-induced calcium mobilization, GPR40/CHO NFAT BLA cells); parameters: expressed in transfected cells
# Description: as §1
# FLIPR (Fluorimetric Imaging Plate Reader, Molecular Devices) assays were performed to measure agonist-induced calcium mobilization of the stable clones. For the FLIPR assay, one day before assay, GPR40/CHO NFAT BLA cells were seeded into black-wall-clear-bottom 384-well plates (Costar) at 1.4×10e4 cells/20 μL medium/well. The cells were incubated with 20 μl/well of the assay buffer (HBSS, 0.1% BSA, 20 mM HEPES, 2.5 mM probenecid, pH 7.4) containing 8 μM fluo-4, AM, 0.08% pluronic acid at room temperature for 100 minutes. Fluorescence output was measured using FLIPR. Compounds were dissolved in DMSO and diluted to desired concentrations with assay buffer. 13.3 μL/well of compound solution was added.
# T1 sequence (O14842 whole entry): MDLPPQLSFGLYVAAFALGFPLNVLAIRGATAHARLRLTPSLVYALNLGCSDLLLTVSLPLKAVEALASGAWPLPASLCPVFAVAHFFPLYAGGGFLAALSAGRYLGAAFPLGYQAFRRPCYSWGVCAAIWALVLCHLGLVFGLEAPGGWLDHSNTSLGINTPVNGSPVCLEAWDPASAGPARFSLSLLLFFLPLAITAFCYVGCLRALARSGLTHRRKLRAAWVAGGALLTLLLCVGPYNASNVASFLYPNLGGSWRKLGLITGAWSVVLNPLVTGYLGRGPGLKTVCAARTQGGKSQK
Structure (SMILES),EC50 (Human GPR40 [1]) [nM],EC50 (Human GPR40 [2]) [nM],EC50 (Human GPR40 [3]) [nM]
"Cc1cc(OC2CC(C(C)(O)CO)C2)cc(C)c1-c1cc(COc2cc3c(cn2)C2C(C3)C2C(=O)O)c(F)cc1F (single isomer, unassigned) [Compound-21]",1,,
"Cc1cc(OC2CC(C(C)(O)CO)C2)cc(C)c1-c1cc(COc2cc3c(cn2)C2C(C3)C2C(=O)O)c(F)cc1F (single isomer, unassigned) [Compound-22]",0.7,,
"O=C(O)[C@H]1[C@@H]2Cc3cc(OCc4cc(-c5ccc(OC[C@H]6C[C@@](O)(CO)C6)cc5Cl)c(F)cc4F)ncc3[C@@H]21 (single isomer, unassigned) [Compound-23]",1,,
"O=C(O)[C@H]1[C@@H]2Cc3cc(OCc4cc(-c5ccc(OC[C@H]6C[C@](O)(CO)C6)cc5Cl)c(F)cc4F)ncc3[C@@H]21 (single isomer, unassigned) [Compound-24]",1.3,,
"Cc1cc(OC[C@H]2C[C@@](O)(CO)C2)cc(C)c1-c1cc(COc2cc3c(cn2)[C@H]2[C@@H](C3)[C@@H]2C(=O)O)c(F)cc1F (single isomer, unassigned) [Compound-25]",1.9,,
"Cc1cc(OC[C@H]2C[C@](O)(CO)C2)cc(C)c1-c1cc(COc2cc3c(cn2)[C@H]2[C@@H](C3)[C@@H]2C(=O)O)c(F)cc1F (single isomer, unassigned) [Compound-26]",1.6,,
"C[C@]1(O)C[C@@H](COc2ccc(-c3cc(COc4cc5c(cn4)[C@H]4[C@@H](C5)[C@@H]4C(=O)O)c(F)cc3C(F)(F)F)cc2F)C1 [Compound-1, (5aR,6S,6aS)-3-{[3′,4-difluoro-4′-(((1s,3s)-3-hydroxy-3-methylcyclobutyl)methoxy)-6-(trifluoromethyl)-[1,1′-biphenyl]-3-yl]methoxy}-5,5a,6,6a-tetrahydrocyclopropa[4,5]cyclopenta[1,2-c]pyridine-6-carboxylic acid]",,11,7
"C[C@]1(O)C[C@@H](COc2c(F)cc(-c3cc(COc4cc5c(cn4)[C@H]4[C@@H](C5)[C@@H]4C(=O)O)c(F)cc3C(F)(F)F)cc2F)C1 [Compound-2, (5aR,6S,6aS)-3-{[3′,4,5′-trifluoro-4′-(((1s,3s)-3-hydroxy-3-methylcyclobutyl)methoxy)-6-(trifluoromethyl)-[1,1′-biphenyl]-3-yl]methoxy}-5,5a,6,6a-tetrahydrocyclopropa[4,5]cyclopenta[1,2-c]pyridine-6-carboxylic acid]",,6.9,5.8
"C[C@]1(O)CC[C@H](Oc2c(F)cc(-c3cc(COc4cc5c(cn4)[C@H]4[C@@H](C5)[C@@H]4C(=O)O)c(F)cc3C(F)(F)F)cc2F)CC1 [Compound-3, (5aR,6S,6aS)-3-{[3′,4,5′-trifluoro-4′-(((1r,4r)-4-hydroxy-4-methylcyclohexyl)oxy)-6-(trifluoromethyl)-[1,1′-biphenyl]-3-yl]methoxy}-5,5a,6,6a-tetrahydrocyclopropa[4,5]cyclopenta[1,2-c]pyridine-6-carboxylic acid]",,14,3.7
"N#Cc1ccc(-c2ccc(-c3cc(COc4cc5c(cn4)[C@H]4[C@@H](C5)[C@@H]4C(=O)O)c(F)cc3C(F)(F)F)cc2)cc1 [Compound-9, (5aR,6S,6aS)-3-((4″-cyano-4-fluoro-6-(trifluoromethyl)-[1,1′:4′,1″-terphenyl]-3-yl)methoxy)-5,5a,6,6a-tetrahydrocyclopropa[4,5] cyclopenta[1,2-c]pyridine-6-carboxylic acid]",,8.9,
"CS(=O)(=O)c1ccc(-c2ccc(-c3cc(COc4cc5c(cn4)[C@H]4[C@@H](C5)[C@@H]4C(=O)O)c(F)cc3C(F)(F)F)cc2)cc1 [Compound-10, (5aR,6S,6aS)-3-((4-fluoro-4″-(methylsulfonyl)-6-(tri-fluoromethyl)-[1,1′;4′,1″- terphenyl]-3-yl)methoxy)-5,5a,6,6a-tetrahydrocyclo-propa[4,5]cyclpenta [1,2-c]pyridine-6-carboxylic acid]",,2.9,
"Cc1nc(OC[C@H]2C[C@@](C)(O)C2)ccc1-c1cc(COc2cc3c(cn2)[C@H]2[C@@H](C3)[C@@H]2C(=O)O)c(F)cc1C(F)(F)F [Compound-14, (5 aR,6S,6aS)-3-((2-fluoro-5-(6-(((1s,3s)-3-hydroxy-3-methylcyclobutyl)methoxy)-2-methylpyridin-3-yl)-4-(trifluoromethyl)benzyl)oxy)-5,5a,6,6a-tetrahydrocyclopropa-[4,5]cyclopenta[1,2-c]pyridine-6-carboxylic acid]",1.2,6.3,
Cc1cc(O[C@H]2C[C@H](S(C)(=O)=O)C2)cc(C)c1-c1cc(COc2cc3c(cn2)[C@H]2[C@@H](C3)[C@@H]2C(=O)O)c(F)cc1F [Compound-15],1.2,6.7,
"Cc1cc(-c2nnn(CC(C)(C)O)n2)cc(C)c1-c1cc(COc2cc3c(cn2)[C@H]2[C@@H](C3)[C@@H]2C(=O)O)c(F)cc1F [Compound-16, (5aR,6S,6aS)-3-((4,6-difluoro-4′-(2-(2-hydroxy-2-methylpropyl)-2H-tetrazol-5-yl)-2′,6′-dimethyl-[1,1′-biphenyl]-3-yl)methoxy)-5,5a,6,6a-tetrahydrocyclopropa[4,5]cyclopenta[1,2-c]pyridine-6-carboxylic acid]",1,9.4,
"Cc1cc(-c2ncn(CC(C)(C)O)n2)cc(C)c1-c1cc(COc2cc3c(cn2)[C@H]2[C@@H](C3)[C@@H]2C(=O)O)c(F)cc1F [Compound-17, (5aR,6S,6aS)-3-((4,6-difluoro-4′-(1-(2-hydroxy-2-methylpropyl)-1H-1,2,4-triazol-3-yl)-2′,6′-dimethyl-[1,1′-biphenyl]-3-yl)methoxy)-5,5a,6,6a-tetrahydrocyclopropa[4,5]cyclopenta[1,2-c]pyridine-6-carboxylic acid]",0.8,,
"Cc1nc(N2Cc3cn(CC(C)(C)O)nc3C2)ccc1-c1cc(COc2cc3c(cn2)[C@H]2[C@@H](C3)[C@@H]2C(=O)O)c(F)cc1C(F)(F)F [Compound-18, (5aR,6S,6aS)-3-((2-fluoro-5-(6-(2-(2-hydroxy-2-methylpropyl)pyrrolo[3,4-c]pyrazol-5(2H,4H,6H)-yl)-2-methylpyridin-3-yl)-4-(trifluoromethyl)benzyl)oxy)-5,5a,6,6a-tetrahydrocyclopropa[4,5]cyclopenta[1,2-c]pyridine-6-carboxylic acid]",1,7.6,
Cc1nc(OC2CC(S(C)(=O)=O)C2)ccc1-c1cc(COc2cc3c(cn2)[C@H]2[C@@H](C3)[C@@H]2C(=O)O)c(F)cc1C(F)(F)F (stereo partly shown) [Compound-19],2.1,,
"Cc1cc(OC[C@H]2C[C@](C)(O)[C@](C)(O)C2)cc(C)c1-c1cc(COc2cc3c(cn2)[C@H]2[C@@H](C3)[C@@H]2C(=O)O)c(F)cc1F [Compound-20, (5aR,6S,6aS)-3-((4′-(((1s,3R,4S)-3,4-dihydroxy-3,4-dimethylcyclopentyl)methoxy)-4,6-difluoro-2′,6′-dimethyl-[1,1′-biphenyl]-3-yl)methoxy)-5,5a,6,6a-tetrahydrocyclopropa-[4,5]cyclopenta[1,2-c]pyridine-6-carboxylic acid]",3.1,,
